Data reported in the NIST ThermoML archive (doi:10.1021/je4009415).
± gives the expanded uncertainty stated by the source.

Key:
[1] = Liquid; for mass density: Vibrating tube method; for vapor or sublimation pressure: Ebulliometric method (Recirculating still)
[2] = refractive index (Na D-line) (dimensionless); conditions: 298.15 K; 101.33 kPa; Liquid; Standard Abbe refractometry
[3] = xn = mol fraction of the nth substance listed; conditions: Liquid, Vibrating tube method

CCOC(=O)CC [ethyl propanoate]
[1]
Conditions | mass density [kg/m3] | vapor or sublimation pressure [kPa]
288.15 K | 895.58 ± 0.72 | –
298.15 K | 884.15 ± 0.71 | –
308.15 K | 872.62 ± 0.7 | –
318.15 K | 861.08 ± 0.68 | –
328.15 K | 849.41 ± 0.67 | –
348.07 K | – | 45 ± 0.1
349.55 K | – | 47.5 ± 0.11
350.96 K | – | 50 ± 0.11
352.34 K | – | 52.5 ± 0.12
353.66 K | – | 55 ± 0.12
354.91 K | – | 57.5 ± 0.13
356.15 K | – | 60 ± 0.13
357.32 K | – | 62.5 ± 0.14
358.48 K | – | 65 ± 0.14
359.57 K | – | 67.5 ± 0.15
360.66 K | – | 70 ± 0.15
361.72 K | – | 72.5 ± 0.16
362.74 K | – | 75 ± 0.16
363.71 K | – | 77.5 ± 0.17
364.69 K | – | 80 ± 0.17
365.63 K | – | 82.5 ± 0.18
366.55 K | – | 85 ± 0.18
367.47 K | – | 87.5 ± 0.19
368.35 K | – | 90 ± 0.19
369.21 K | – | 92.5 ± 0.2
370.06 K | – | 95 ± 0.2
370.87 K | – | 97.5 ± 0.21
371.73 K | – | 100 ± 0.21
372.09 K | – | 101.32 ± 0.22
372.18 K | – | 101.32 ± 0.23
373.31 K | – | 105 ± 0.22
374.84 K | – | 110 ± 0.23
376.29 K | – | 115 ± 0.24
377.7 K | – | 120 ± 0.25
379.08 K | – | 125 ± 0.26
380.4 K | – | 130 ± 0.27
381.67 K | – | 135 ± 0.28
382.91 K | – | 140 ± 0.29
384.15 K | – | 145 ± 0.3
385.32 K | – | 150 ± 0.32
386.47 K | – | 155 ± 0.33
387.6 K | – | 160 ± 0.34
388.69 K | – | 165 ± 0.35
389.77 K | – | 170 ± 0.36
390.81 K | – | 175 ± 0.37
391.83 K | – | 180 ± 0.38
392.85 K | – | 185 ± 0.39
393.81 K | – | 190 ± 0.4
394.77 K | – | 195 ± 0.41
395.72 K | – | 200 ± 0.42
396.64 K | – | 205 ± 0.43
397.55 K | – | 210 ± 0.44
398.43 K | – | 215 ± 0.45
399.31 K | – | 220 ± 0.46
400.17 K | – | 225 ± 0.47
401 K | – | 230 ± 0.48
401.83 K | – | 235 ± 0.49
402.65 K | – | 240 ± 0.5
403.46 K | – | 245 ± 0.51
404.25 K | – | 250 ± 0.52
405.04 K | – | 255 ± 0.53
405.79 K | – | 260 ± 0.54
406.56 K | – | 265 ± 0.55
407.3 K | – | 270 ± 0.56
408.03 K | – | 275 ± 0.57
408.75 K | – | 280 ± 0.58

Conditions | refractive index
[2] | 1.3811 ± 0.0006

CCOC(=O)CC [ethyl propanoate] + CCCCC
mass density [kg/m3], [3]
Conditions | 288.15 K | 298.15 K
x1 = 0.0503 | 643.39 ± 0.28 | –
x1 = 0.0545 | – | 634.55 ± 0.28
x1 = 0.1013 | – | 646.47 ± 0.29
x1 = 0.1017 | 656.5 ± 0.29 | –
x1 = 0.1511 | 669.25 ± 0.3 | –
x1 = 0.1538 | – | 659.85 ± 0.3
x1 = 0.2025 | 682.62 ± 0.31 | –
x1 = 0.2051 | – | 673.1 ± 0.31
x1 = 0.254 | – | 685.81 ± 0.32
x1 = 0.2551 | 696.41 ± 0.32 | –
x1 = 0.3012 | 708.53 ± 0.33 | –
x1 = 0.3038 | – | 698.8 ± 0.33
x1 = 0.3525 | 722.09 ± 0.35 | –
x1 = 0.3594 | – | 713.37 ± 0.35
x1 = 0.3947 | 733.28 ± 0.36 | –
x1 = 0.4062 | – | 725.7 ± 0.36
x1 = 0.4496 | 747.92 ± 0.38 | –
x1 = 0.4575 | – | 739.37 ± 0.38
x1 = 0.5009 | 761.7 ± 0.4 | –
x1 = 0.5083 | – | 752.81 ± 0.4
x1 = 0.5519 | 775.33 ± 0.42 | –
x1 = 0.56 | – | 766.57 ± 0.42
x1 = 0.5987 | 787.9 ± 0.45 | –
x1 = 0.606 | – | 778.84 ± 0.44
x1 = 0.6449 | 800.24 ± 0.47 | –
x1 = 0.6559 | – | 792.17 ± 0.47
x1 = 0.6974 | 814.34 ± 0.5 | –
x1 = 0.7061 | – | 805.64 ± 0.5
x1 = 0.7488 | 828.17 ± 0.53 | –
x1 = 0.7498 | – | 817.26 ± 0.52
x1 = 0.7974 | 841.13 ± 0.56 | –
x1 = 0.8007 | – | 830.93 ± 0.56
x1 = 0.8477 | 854.65 ± 0.6 | –
x1 = 0.8535 | – | 844.98 ± 0.6
x1 = 0.8951 | 867.4 ± 0.64 | –
x1 = 0.9054 | – | 858.85 ± 0.64
x1 = 0.9482 | 881.6 ± 0.68 | –
x1 = 0.9511 | – | 871.06 ± 0.67
x1 = 1 | 895.58 ± 0.72 | 884.15 ± 0.71

CCCCCCC [heptane]
[1]
Conditions | mass density [kg/m3] | vapor or sublimation pressure [kPa]
288.15 K | 688.16 ± 0.25 | –
298.15 K | 679.62 ± 0.25 | –
308.15 K | 670.96 ± 0.25 | –
318.15 K | 662.33 ± 0.25 | –
328.15 K | 653.61 ± 0.25 | –
371.38 K | – | 101.32 ± 0.46

Conditions | refractive index
[2] | 1.3853 ± 0.0005

CCCCCCC [heptane] + CCC(=O)OC
[3], x2 = 0
Conditions | mass density [kg/m3]
288.15 K | 688.16 ± 0.25
298.15 K | 679.62 ± 0.25
308.15 K | 670.96 ± 0.25
318.15 K | 662.33 ± 0.25
328.15 K | 653.61 ± 0.25

CCCCCCC [heptane] + CCOC(=O)CC
[3], x2 = 0
Conditions | mass density [kg/m3]
288.15 K | 688.16 ± 0.25
298.15 K | 679.62 ± 0.25
308.15 K | 670.96 ± 0.25
318.15 K | 662.33 ± 0.25
328.15 K | 653.61 ± 0.25
